Results as given in the supplement of paper PMC8920030.

Assays:
Settings in all cases: growth mode: biofilm, 24 h; exposure time: 24 h
tobramycin [1] = compound: T1, NC[C@H]1O[C@H](O[C@H]2[C@H](O)[C@@H](O[C@H]3O[C@H](CO)[C@@H](O)[C@H](N)[C@H]3O)[C@H](N)C[C@@H]2N)[C@H](N)C[C@@H]1O [tobramycin]; experiment: minimum concentration of killing, 4-log CFU reduction of biofilm (MCK99.99); higher = more biofilm tolerance
Procedure: (§1)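 Clinical P. aeruginosa isolates were grown as static biofilms for 24 h at 37 °C in LB in half-area 96-well plates, then exposed for 24 h to tobramycin at 1, 4, 16, 64, 256 or […]. Surviving CFU were counted by spotting serial dilutions. MCK is the lowest tested concentration giving the stated log reduction in CFU versus an untreated control; '>1024' means the reduction was not reached at the top dose, and 1 is the lowest dose tested (≤1).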

colistin [2] = compound: T2, CCC(C)CCCC(=O)N[C@@H](CCN)C(=O)N[C@H](C(=O)N[C@@H](CCN)C(=O)N[C@H]1CCNC(=O)[C@H]([C@@H](C)O)NC(=O)[C@H](CCN)NC(=O)[C@H](CCN)NC(=O)[C@H](CC(C)C)NC(=O)[C@@H](CC(C)C)NC(=O)[C@H](CCN)NC1=O)[C@@H](C)O [colistin]; experiment: as above
Procedure: as §1, with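 “colistin” for “tobramycin”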

colistin [3] = compound: T2, colistin; experiment: minimum concentration of killing, 1-log CFU reduction of biofilm (MCK90); higher = more biofilm tolerance
Procedure: as §1, with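 “colistin” for “tobramycin”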

tobramycin [4] = compound: T1, tobramycin; experiment: as above
Procedure: as §1

tobramycin [5] = compound: T1, tobramycin; experiment: minimum concentration eradicating biofilm below detection limit (MCK-E); higher = more biofilm tolerance
Procedure: as §1

colistin [6] = compound: T2, colistin; experiment: minimum concentration of killing, 2-log CFU reduction of biofilm (MCK99); higher = more biofilm tolerance
Procedure: as §1, with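 “colistin” for “tobramycin”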

tobramycin [7] = compound: T1, tobramycin; experiment: as above
Procedure: as §1

colistin [8] = compound: T2, colistin; experiment: minimum concentration eradicating biofilm below detection limit (MCK-E); higher = more biofilm tolerance
Procedure: as §1, with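 “colistin” for “tobramycin”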

| Test System | minimum concentration of killing (tobramycin [1]) | minimum concentration of killing (colistin [2]) | minimum concentration of killing (colistin [3]) | minimum concentration of killing (tobramycin [4]) | minimum concentration eradicating biofilm below detection limit (tobramycin [5]) | minimum concentration of killing (colistin [6]) | minimum concentration of killing (tobramycin [7]) | minimum concentration eradicating biofilm below detection limit (colistin [8]) |
| --- | --- | --- | --- | --- | --- | --- | --- | --- |
| Pseudomonas aeruginosa clinical isolate F1659 | 256 µg/mL | 64 µg/mL | 16 µg/mL | 4 µg/mL | 1020 µg/mL | 64 µg/mL | 16 µg/mL | – |
| Pseudomonas aeruginosa clinical isolate F1689 | – | – | – | 4 µg/mL | – | – | 4 µg/mL | – |
| Pseudomonas aeruginosa clinical isolate F1748 | 16 µg/mL | 256 µg/mL | 256 µg/mL | 4 µg/mL | 256 µg/mL | 256 µg/mL | 16 µg/mL | – |
| Pseudomonas aeruginosa clinical isolate F1801 | 256 µg/mL | 256 µg/mL | 256 µg/mL | ≤ 1 µg/mL | 256 µg/mL | 256 µg/mL | 4 µg/mL | – |
| Pseudomonas aeruginosa clinical isolate F1883 | – | 1020 µg/mL | 16 µg/mL | 64 µg/mL | – | 256 µg/mL | 256 µg/mL | 1020 µg/mL |
| Pseudomonas aeruginosa clinical isolate F1894 | – | 256 µg/mL | 256 µg/mL | 4 µg/mL | 256 µg/mL | 256 µg/mL | 16 µg/mL | 256 µg/mL |
| Pseudomonas aeruginosa clinical isolate F1997 | 1020 µg/mL | – | – | 16 µg/mL | > 1020 µg/mL | – | 64 µg/mL | – |
| Pseudomonas aeruginosa clinical isolate F2026 | > 1020 µg/mL | 256 µg/mL | 256 µg/mL | – | > 1020 µg/mL | 256 µg/mL | 256 µg/mL | 256 µg/mL |
| Pseudomonas aeruginosa clinical isolate F2029 | 256 µg/mL | 256 µg/mL | 256 µg/mL | – | 256 µg/mL | 256 µg/mL | – | 256 µg/mL |
| Pseudomonas aeruginosa clinical isolate F2030 | 1020 µg/mL | 256 µg/mL | 64 µg/mL | – | – | 256 µg/mL | – | 256 µg/mL |
| Pseudomonas aeruginosa clinical isolate F2034 | – | 256 µg/mL | 64 µg/mL | – | – | 64 µg/mL | – | 256 µg/mL |
| Pseudomonas aeruginosa clinical isolate F2035 | – | 256 µg/mL | 64 µg/mL | – | – | 64 µg/mL | – | 1020 µg/mL |
| Pseudomonas aeruginosa clinical isolate F2044 | – | – | – | – | – | – | – | 256 µg/mL |
| Pseudomonas aeruginosa clinical isolate F2045 | – | – | – | – | – | – | – | > 1020 µg/mL |
| Pseudomonas aeruginosa clinical isolate F2059 | – | – | – | – | – | – | – | 256 µg/mL |
